In PubChem BioAssay AID248 (DTP/NCI, 2004):
Inconclusive results and toxic doses are left out. Cut-off read from the data, not from the text of the source: active = T/C of 150% or more; inactive = T/C below 125%.

Tested on: L1210 leukemia ip in BDF1 mice, survival T/C
Test: NCI In Vivo Anticancer Drug Screen. Data for tumor model L1210 Leukemia (intraperitoneal) in B6D2F1 (BDF1) mice
Settings: endpoint: mean survival time, higher = longer survival
How it was run: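 Transplanted-tumor mice were given test agent; controls received vehicle only. Survival readings from the two groups were divided (treated over control).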

[1] = dose: 100.0 mg/kg/injection, schedule: Q01DX001 (ip), vehicle: Klucel (hydroxypropylcellulose) (HPC)
[2] = dose: 200.0 mg/kg/injection, schedule: Q01DX001 (ip), vehicle: Klucel (hydroxypropylcellulose) (HPC)
[3] = dose: 400.0 mg/kg/injection, schedule: Q01DX001 (ip), vehicle: Klucel (hydroxypropylcellulose) (HPC)
[4] = dose: 100.0 mg/kg/injection, schedule: Q01DX001 (ip), vehicle: saline
[5] = dose: 200.0 mg/kg/injection, schedule: Q01DX001 (ip), vehicle: saline
[6] = dose: 100.0 mg/kg/injection, schedule: Q01DX001 (ip), vehicle: saline with Tween-80
[7] = dose: 200.0 mg/kg/injection, schedule: Q01DX001 (ip), vehicle: saline with Tween-80
[8] = dose: 400.0 mg/kg/injection, schedule: Q01DX001 (ip), vehicle: saline with Tween-80
[9] = dose: 50.0 mg/kg/injection, schedule: Q01DX009 (ip), vehicle: Klucel (hydroxypropylcellulose) (HPC)
[10] = dose: 100.0 mg/kg/injection, schedule: Q01DX009 (ip), vehicle: Klucel (hydroxypropylcellulose) (HPC)
[11] = dose: 100.0 mg/kg/injection, schedule: Q01DX001 (ip), vehicle: carboxymethylcellulose (CMC)
[12] = dose: 200.0 mg/kg/injection, schedule: Q01DX001 (ip), vehicle: carboxymethylcellulose (CMC)
[13] = dose: 400.0 mg/kg/injection, schedule: Q01DX001 (ip), vehicle: carboxymethylcellulose (CMC)
[14] = dose: 100.0 mg/kg/injection, schedule: Q04DX003 (ip), vehicle: Klucel (hydroxypropylcellulose) (HPC)
[15] = dose: 200.0 mg/kg/injection, schedule: Q04DX003 (ip), vehicle: Klucel (hydroxypropylcellulose) (HPC)
[16] = dose: 400.0 mg/kg/injection, schedule: Q04DX003 (ip), vehicle: Klucel (hydroxypropylcellulose) (HPC)
[17] = dose: 100.0 mg/kg/injection, schedule: Q01DX009 (ip), vehicle: saline with Tween-80
[18] = dose: 200.0 mg/kg/injection, schedule: Q01DX009 (ip), vehicle: saline with Tween-80
[19] = dose: 400.0 mg/kg/injection, schedule: Q01DX009 (ip), vehicle: saline with Tween-80
[20] = dose: 25.0 mg/kg/injection, schedule: Q01DX009 (ip), vehicle: Klucel (hydroxypropylcellulose) (HPC)
[21] = dose: 400.0 mg/kg/injection, schedule: Q01DX009 (ip), vehicle: Klucel (hydroxypropylcellulose) (HPC)
[22] = dose: 500.0 mg/kg/injection, schedule: Q01DX Z (ip), vehicle: methylcellulose (MC)
[23] = dose: 200.0 mg/kg/injection, schedule: Q01DX009 (ip), vehicle: Klucel (hydroxypropylcellulose) (HPC)

Measured: T/C

COC(=O)N1C(c2ccc(OC)cc2)CS1(=O)=O (stereo not given)
inactive: dose: 75.0 mg/kg/injection, schedule: Q04DX003 (ip), vehicle: Klucel (hydroxypropylcellulose) (HPC) 101 % of control | [1] 97 % of control | dose: 150.0 mg/kg/injection, schedule: Q04DX003 (ip), vehicle: Klucel (hydroxypropylcellulose) (HPC) 98 % of control | [2] 102 % of control | dose: 300.0 mg/kg/injection, schedule: Q04DX003 (ip), vehicle: Klucel (hydroxypropylcellulose) (HPC) 116 % of control | [3] 97 % of control

CC(=O)c1cccc(O)c1
inactive: dose: 100.0 mg/kg/injection, schedule: Q04DX002 (ip), vehicle: saline with Tween-80 98 % of control | dose: 200.0 mg/kg/injection, schedule: Q04DX002 (ip), vehicle: saline with Tween-80 95 % of control | dose: 400.0 mg/kg/injection, schedule: Q04DX002 (ip), vehicle: saline with Tween-80 102 % of control

NNC(=O)C1CC2C(=O)NNC(=O)C2C1C(=O)O (stereo not given)
inactive: [4] 102 % of control | [5] 107 % of control | dose: 400.0 mg/kg/injection, schedule: Q01DX001 (ip), vehicle: saline 113 % of control

CC(=O)Nc1c(C)cccc1[N+](=O)[O-]
inactive: [6] 94 % of control

CCCCP(=O)(CCCC)C1CCCC1
inactive: [6] 103 % of control | [7] 100 % of control | [8] 90 % of control

O=C(Nc1ccc(C(=O)O)cc1)Nc1ccccc1F
inactive: [9] 93 % of control | [10] 104 % of control

CC(=O)Nc1cccc(C)c1C
inactive: dose: 100.0 mg/kg/injection, schedule: Q04DX002 (ip), vehicle: Klucel (hydroxypropylcellulose) (HPC) 107 % of control | dose: 200.0 mg/kg/injection, schedule: Q04DX002 (ip), vehicle: Klucel (hydroxypropylcellulose) (HPC) 100 % of control | dose: 400.0 mg/kg/injection, schedule: Q04DX002 (ip), vehicle: Klucel (hydroxypropylcellulose) (HPC) 103 % of control

Cc1ccc(C(=O)NCc2ccc(CCc3nc(N)nc(N)c3-c3ccc(Cl)c(Cl)c3)cc2)cc1S(=O)(=O)F
inactive: [6] 100 % of control | [7] 110 % of control | [8] 114 % of control

CCS(=O)(=O)c1ccc(NC(=O)OC(c2ccccc2)c2ccccc2)cc1
inactive: [11] 94 % of control | [12] 91 % of control | [13] 96 % of control

CCCCCC1CCC(OC(C)=O)CC1 (stereo not given)
inactive: [1] 99 % of control | [14] 101 % of control | [2] 96 % of control | [15] 95 % of control | [3] 96 % of control | [16] 93 % of control

COc1ccc2[nH]c(=O)ccc2c1
inactive: dose: 300.0 mg/kg/injection, schedule: Q01DX001 (ip), vehicle: Klucel (hydroxypropylcellulose) (HPC) 98 % of control

O=C1c2ccccc2-c2cc(S)ccc21
inactive: [11] 109 % of control | [12] 104 % of control | [13] 101 % of control

CN(C)CCOC(=O)c1cccc(CCl)c1CCl
inactive: dose: 87.5 mg/kg/injection, schedule: Q01DX009 (ip), vehicle: saline 106 % of control

O=S(=O)(O)c1cccc2cccc(Cl)c12
inactive: [17] 99 % of control | dose: 100.0 mg/kg/injection, schedule: Q01DX009 (ip), vehicle: saline 95 % of control | dose: 100.0 mg/kg/injection, schedule: Q04DX003 (ip), vehicle: saline 109 % of control | [18] 94 % of control | dose: 200.0 mg/kg/injection, schedule: Q01DX009 (ip), vehicle: saline 97 % of control | dose: 200.0 mg/kg/injection, schedule: Q04DX003 (ip), vehicle: saline 105 % of control | [19] 96 % of control | dose: 400.0 mg/kg/injection, schedule: Q01DX009 (ip), vehicle: saline 103 % of control | dose: 400.0 mg/kg/injection, schedule: Q04DX003 (ip), vehicle: saline 115 % of control

CCOC(=O)CNC(=O)Nc1ccc(NC(C)=O)cc1
inactive: [17] 94 % of control | [18] 94 % of control | [19] 88 % of control

c1ccc(C2OCCCO2)cc1
inactive: dose: 12.5 mg/kg/injection, schedule: Q01DX009 (ip), vehicle: Klucel (hydroxypropylcellulose) (HPC) 92 % of control | [20] 100 % of control | [21] 87 % of control

CCC(O)(c1ccccc1)c1ccccc1
inactive: dose: 100.0 mg/kg/injection, schedule: Q04DX003 (ip), vehicle: saline with Tween-80 103 % of control | dose: 200.0 mg/kg/injection, schedule: Q04DX003 (ip), vehicle: saline with Tween-80 99 % of control | dose: 400.0 mg/kg/injection, schedule: Q04DX003 (ip), vehicle: saline with Tween-80 98 % of control

CNC(=O)C(C)(C)C
inactive: [6] 100 % of control | [7] 103 % of control | [8] 100 % of control

CCC(=O)OCNC(=O)NCc1ccco1
inactive: dose: 222.0 mg/kg/injection, schedule: Q01DX Z (ip), vehicle: methylcellulose (MC) 103 % of control | dose: 333.0 mg/kg/injection, schedule: Q01DX Z (ip), vehicle: methylcellulose (MC) 105 % of control | [22] 94 % of control

CCOc1ccc(NC(=O)Nc2cccc3ccccc23)cc1
inactive: [10] 98 % of control | [14] 86 % of control | [23] 94 % of control | [21] 86 % of control | [16] 92 % of control

CC12CCCCC1C=CC(=O)C2 (stereo not given)
inactive: dose: 75.0 mg/kg/injection, schedule: Q01DX001 (ip), vehicle: other 89 % of control | dose: 150.0 mg/kg/injection, schedule: Q01DX001 (ip), vehicle: other 94 % of control

CCN(C(=O)c1ccc(C(=O)N(CC)c2cccc(C)c2)cc1)c1cccc(C)c1
inactive: [10] 94 % of control | [23] 89 % of control | [21] 91 % of control

O=C(Sc1ccccc1)C1OC1c1ccccc1 (stereo not given)
inactive: dose: 100.0 mg/kg/injection, schedule: Q04DX003 (ip), vehicle: alcohol 98 % of control | dose: 200.0 mg/kg/injection, schedule: Q04DX003 (ip), vehicle: alcohol 92 % of control | dose: 400.0 mg/kg/injection, schedule: Q04DX003 (ip), vehicle: alcohol 86 % of control

O=C(c1ccc(-c2ccccc2)cc1)C1CC1
inactive: [10] 97 % of control | [23] 97 % of control | [21] 91 % of control

COc1c(/C=C/[N+](=O)[O-])ccc2c(C)c(C)oc12
inactive: [20] 98 % of control | [9] 95 % of control | [10] 101 % of control | [14] 98 % of control | [15] 87 % of control | [16] 92 % of control

c1ccc(-c2nnc(N3CCCCC3)nc2-c2ccccc2)cc1
inactive: dose: 50.0 mg/kg/injection, schedule: Q01DX001 (ip), vehicle: saline 100 % of control | [4] 88 % of control | [5] 94 % of control

CC1=CC(C)(C)NC(=S)N1c1cc(Cl)ccc1Cl
inactive: [17] 87 % of control | [18] 90 % of control | dose: 224.0 mg/kg/injection, schedule: Q01DX Z (ip), vehicle: methylcellulose (MC) 105 % of control | dose: 334.0 mg/kg/injection, schedule: Q01DX Z (ip), vehicle: methylcellulose (MC) 89 % of control | [19] 92 % of control | [22] 86 % of control

CC1(C)C2CCC1(C)C2C=O (stereo not given)
inactive: [10] 96 % of control | [23] 93 % of control | [21] 96 % of control

O=C(Nc1cccc(C(F)(F)F)c1)N(Cc1ccccc1)c1ccccc1
inactive: [10] 109 % of control | [23] 95 % of control | [21] 96 % of control

COc1ccc(NC(=O)N(c2ccccc2)C(C)C)c(OC)c1
inactive: [10] 97 % of control | [23] 94 % of control | [21] 102 % of control

O=C(CCCCCCCCC(=O)OCc1ccccc1)OCc1ccccc1
inactive: dose: 100.0 mg/kg/injection, schedule: Q04DX002 (ip), vehicle: saline 96 % of control | dose: 200.0 mg/kg/injection, schedule: Q04DX002 (ip), vehicle: saline 88 % of control | dose: 400.0 mg/kg/injection, schedule: Q04DX002 (ip), vehicle: saline 100 % of control
